Patent publication US20250313563A1, “GLYCOGEN SYNTHASE KINASE 3 INHIBITORS AND USES THEREOF” (The Broad Institute, Inc., priority 2022, published 2025)
pIC50: −log10 of the molar value. Like-named read-outs stand apart in the source and are kept apart here. Blank lines part the entries; values can stand above or below the compound they belong to.

What was measured:
[1] = molecular target: GSK3b (GST-full length GSK3b) (Homo sapiens (Human), UniProt P49841); assay: GSK3b TR-FRET kinase assay; assay type: biochemical
Sequence of GSK3b (GST-full length GSK3b) (P49841 whole entry): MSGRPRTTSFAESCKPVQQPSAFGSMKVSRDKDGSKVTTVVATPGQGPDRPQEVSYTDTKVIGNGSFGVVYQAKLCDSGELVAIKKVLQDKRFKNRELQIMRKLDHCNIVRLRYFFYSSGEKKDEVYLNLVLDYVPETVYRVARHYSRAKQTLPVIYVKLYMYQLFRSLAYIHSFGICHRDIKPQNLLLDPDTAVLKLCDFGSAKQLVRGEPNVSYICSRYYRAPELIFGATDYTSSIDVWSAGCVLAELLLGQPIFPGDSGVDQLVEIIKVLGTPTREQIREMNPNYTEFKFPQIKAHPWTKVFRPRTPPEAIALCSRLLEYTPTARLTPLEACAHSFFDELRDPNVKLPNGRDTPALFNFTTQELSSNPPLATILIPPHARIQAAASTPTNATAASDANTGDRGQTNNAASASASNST
Procedure, shortened: (§1)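 IC50 came from the normalized 665/615 nm TR-FRET ratio plotted against log compound concentration. The Tb-labelled pSer641 antibody and streptavidin-d2 detected phosphorylation of biotinylated S645-primed glycogen synthase peptide (200 nM) by 1 nM full-length GST-kinase. ATP was 4 μM for α, 2 μM for β, or 1 mM.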

[2] = molecular target: GSK3α (GST-full length GSK3α) (Homo sapiens (Human), UniProt P49840); assay: GSK3α TR-FRET kinase assay; assay type: biochemical
Sequence of GSK3α (GST-full length GSK3α) (P49840 whole entry): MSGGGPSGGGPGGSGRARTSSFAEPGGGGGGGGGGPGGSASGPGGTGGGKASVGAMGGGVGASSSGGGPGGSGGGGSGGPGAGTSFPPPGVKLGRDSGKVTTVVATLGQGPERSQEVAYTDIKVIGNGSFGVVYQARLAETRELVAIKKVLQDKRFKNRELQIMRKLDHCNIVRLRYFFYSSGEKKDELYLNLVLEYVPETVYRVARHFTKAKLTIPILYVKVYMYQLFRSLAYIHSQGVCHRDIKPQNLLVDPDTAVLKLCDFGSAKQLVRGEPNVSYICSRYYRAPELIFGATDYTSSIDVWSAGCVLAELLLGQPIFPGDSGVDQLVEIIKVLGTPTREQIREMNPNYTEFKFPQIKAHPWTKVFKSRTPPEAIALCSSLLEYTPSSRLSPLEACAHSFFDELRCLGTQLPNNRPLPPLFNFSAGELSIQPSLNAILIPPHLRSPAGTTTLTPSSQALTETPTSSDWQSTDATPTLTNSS
Procedure, shortened: as §1

[3] = 1 nM GSK3b, 2 μM ATP, 30 minute preincubation, read-out: GSK3-B TR-FRET BIOCHEMICAL (TR-FRET), IC50
[4] = 1 nM GSK3α, 4 μM ATP, 30 minute preincubation, read-out: GSK3-A TR-FRET BIOCHEMICAL (TR-FRET), IC50
[5] = 1 nM GSK3b, 2 μM ATP, 30 minute preincubation, geometric mean, read-out: GSK3-B TR-FRET BIOCHEMICAL (TR-FRET), GMean, IC50
[6] = 1 nM GSK3α, 4 μM ATP, 30 minute preincubation, geometric mean, read-out: GSK3-A TR-FRET BIOCHEMICAL (TR-FRET), GMean, IC50
[7] = 1 nM GSK3b, 2 μM ATP, 30 minute preincubation, Table 16, read-out: GSK3-B TR-FRET BIOCHEMICAL (TR-FRET), IC50
[8] = read-out: GSK3-B (TR-FRET 1 mM ATP), GMean, IC50, 1 mM ATP, geometric mean
[9] = 1 nM GSK3α, 4 μM ATP, 30 minute preincubation, Table 16, read-out: GSK3-A TR-FRET BIOCHEMICAL (TR-FRET), IC50
[10] = read-out: GSK3-A (TR-FRET 1 mM ATP), GMean, IC50, 1 mM ATP, geometric mean
[11] = 1 nM GSK3b, 2 μM ATP, 30 minute preincubation, Table 16, read-out: GSK3-B TR-FRET BIOCHEMICAL (TR-FRET)
[12] = 1 nM GSK3α, 4 μM ATP, 30 minute preincubation, Table 16, read-out: GSK3-A TR-FRET BIOCHEMICAL (TR-FRET)
[13] = GSK3-B (TR-FRET 1 mM ATP), GMean, IC50, 1 mM ATP, geometric mean
[14] = GSK3-A (TR-FRET 1 mM ATP), GMean, IC50, 1 mM ATP, geometric mean

SMILES: CC[C@]1(c2cccc(N(C)c3ncccn3)c2)C2=C(CC(C)(C)NC2=O)Nc2n[nH]cc21 [Compound 949179]
pIC50 [1, 5]: < 5.30
pIC50 [2, 6]: 6.00 to 7.00

SMILES: Cc1cccc(C(=O)N2CC3(C2)CC2(CO3)C3=C(CC(C)(C)CC3=O)Nc3n[nH]cc32)c1C (stereo not shown) [Compound 947284]
pIC50 [1, 3]: 6.00 to 7.00
pIC50 [2, 4]: ≥ 7.00

SMILES: CC[C@@]1(c2cccc(C(F)(F)F)c2)C2=C(Nc3n[nH]cc31)[C@H](C)CNC2=O [Compound 945383]
pIC50 [1, 3]: 6.00 to 7.00
pIC50 [2, 4]: ≥ 7.00

SMILES: CCC1(c2cccc(S(=O)(=O)CC3CC3)c2)C2=C(CC(C)(C)CC2=O)Nc2n[nH]cc21 (stereo not shown) [Compound 917150]
pIC50 [1, 7]: ≥ 7.00
pIC50 [1, 8]: 6.00 to 7.00
pIC50 [2, 9]: ≥ 7.00
pIC50 [2, 10]: ≥ 7.00

SMILES: CC[C@]1(c2cccc(-c3cnn4ccncc34)c2)C2=C(CC(C)(C)NC2=O)Nc2n[nH]cc21 [Compound 952565]
pIC50 [1, 7]: 6.00 to 7.00
pIC50 [1, 8]: < 5.30
pIC50 [2, 9]: ≥ 7.00
pIC50 [2, 10]: 5.30 to 6.00

SMILES: CC[C@]1(c2cccc(-c3cnn(C(C)C)c3F)c2)C2=C(CC(C)(C)NC2=O)Nc2n[nH]cc21 [Compound 950061]
pIC50 [1, 7]: < 5.30
pIC50 [2, 9]: 6.00 to 7.00

SMILES: CCC1(c2cccc(C(F)(F)F)c2)C2=C(CC(C)(C)N(C)C2=O)Nc2n[nH]cc21 (stereo not shown) [Compound 826790]
pIC50 [1, 3]: ≥ 7.00
pIC50 [1, 8]: 5.30 to 6.00
pIC50 [2, 4]: ≥ 7.00
pIC50 [2, 10]: 6.00 to 7.00

SMILES: CCC1(c2cccc(-c3ccnc4cc(Cl)c(C)cc34)c2)C2=C(CC(C)(C)NC2=O)Nc2n[nH]cc21 (stereo not shown) [Compound 948654]
pIC50 [1, 5]: < 5.30
pIC50 [2, 6]: < 5.30

SMILES: CCC1(c2cccc(-c3ccnn3C)c2)C2=C(CC3(CCOC3)NC2=O)Nc2n[nH]cc21 (stereo not shown) [Compound 948016]
pIC50 [1, 5]: < 5.30
pIC50 [2, 6]: < 5.30

SMILES: CC[C@@]1(c2cccc(C(F)(F)F)c2)C2=C(Nc3n[nH]cc31)C(C)(C)NC2=O [Compound 913451]
pIC50 [1, 11]: 6.00 to 7.00
pIC50 [2, 12]: ≥ 7.00

SMILES: CCC1(c2cccc(C(F)(F)F)c2)C2=C(CC(C)(C)N(C)C2=O)Nc2n[nH]cc21 (stereo not shown) [Compound 823130]
pIC50 [1, 3]: 6.00 to 7.00
pIC50 [2, 4]: ≥ 7.00

SMILES: CCC1(c2cccc(C(F)(F)F)c2)C2=C(CC(C)CC2=O)Nc2n[nH]cc21 (stereo not shown) [Compound 810451]
pIC50 [1, 5]: ≥ 7.00
pIC50 [2, 6]: ≥ 7.00

SMILES: CC1(C)CC(=O)C2=C(C1)Nc1n[nH]cc1C21CCCN(c2ccncn2)CC1 (stereo not shown) [Compound 917145]
pIC50 [1, 7]: 5.30 to 6.00
pIC50 [2, 9]: 5.30 to 6.00

SMILES: CC1(C)CC(=O)C2=C(C1)Nc1n[nH]cc1[C@]21C[C@@H](c2ccncc2)C1 [Compound 889665]
pIC50 [1, 11]: ≥ 7.00
pIC50 [1, 13]: 6.00 to 7.00
pIC50 [2, 12]: ≥ 7.00
pIC50 [2, 14]: ≥ 7.00

SMILES: CC1(C)CC(=O)C2=C(C1)Nc1n[nH]cc1C21COC2(CN(C(=O)C3(F)CCC3)C2)C1 (stereo not shown) [Compound 947279]
pIC50 [1, 3]: ≥ 7.00
pIC50 [2, 4]: ≥ 7.00

SMILES: CC(C)C1CC(C(=O)N2CC3(C2)CC2(CO3)C3=C(CC(C)(C)CC3=O)Nc3n[nH]cc32)C1 (stereo not shown) [Compound 947273]
pIC50 [1, 3]: ≥ 7.00
pIC50 [2, 4]: ≥ 7.00

Continued, values first:

pIC50 [1, 3]: ≥ 7.00
pIC50 [2, 4]: ≥ 7.00
SMILES: Cc1ccc(C(=O)N2CC3(C2)CC2(CO3)C3=C(CC(C)(C)CC3=O)Nc3n[nH]cc32)cc1 (stereo not shown) [Compound 947290]

pIC50 [1, 3]: ≥ 7.00
pIC50 [2, 4]: ≥ 7.00
SMILES: CCC1(c2cccc(-c3c(C)nn(C)c3C)c2)C2=C(CC(C)(C)NC2=O)Nc2n[nH]c(C)c21 (stereo not shown) [Compound 945598]

pIC50 [1, 5]: 6.00 to 7.00
pIC50 [2, 6]: ≥ 7.00
SMILES: CCC1(c2cccc(-c3cnn(C)c3)c2)C2=C(CC(C)(C)NC2=O)Nc2n[nH]c(F)c21 (stereo not shown) [Compound 949011]

pIC50 [1, 5]: < 5.78
pIC50 [2, 6]: 6.00 to 7.00
SMILES: CC1(C)CC(=O)C2=C(C1)Nc1n[nH]cc1C21CCc2c(F)cccc21 (stereo not shown) [Compound 801357]

pIC50 [1, 7]: < 5.30
pIC50 [2, 9]: 5.30 to 6.00
SMILES: CC[C@@]1(c2cccc(Oc3ncccn3)c2)C2=C(CC(C)(C)NC2=O)Nc2n[nH]c(Cl)c21 [Compound 951605]

pIC50 [1, 7]: < 5.30
pIC50 [2, 9]: 5.30 to 6.00
SMILES: Cn1nccc1CN1CC2(C1)C1=C(CC(C)(C)CC1=O)Nc1n[nH]cc12 [Compound 932653]

pIC50 [1, 3]: ≥ 7.00
pIC50 [2, 4]: ≥ 7.00
SMILES: CC1(C)CC(=O)C2=C(C1)Nc1n[nH]cc1C21COC2(CN(C(=O)C3(C)CCCC3)C2)C1 (stereo not shown) [Compound 947307]

pIC50 [1, 5]: < 5.30
pIC50 [2, 6]: 6.00 to 7.00
SMILES: CCC1(c2cccc(CN(C)C(=O)C(C)C)c2)C2=C(CC(C)(C)CC2=O)Nc2n[nH]cc21 (stereo not shown) [Compound 865195]

pIC50 [1, 3]: 6.00 to 7.00
pIC50 [2, 4]: ≥ 7.00
SMILES: CC[C@@]1(c2cccc(C(F)(F)F)c2)C2=C(Nc3n[nH]cc31)[C@H](C)N(Cc1ccccc1)C2=O [Compound 930331]

pIC50 [1, 11]: < 5.30
pIC50 [2, 12]: < 5.30
SMILES: CC[C@]1(c2ccccc2)C2=C(Nc3n[nH]cc31)[C@@H](F)C(C)(C)CC2=O [Compound 957199]

pIC50 [1, 7]: 6.00 to 7.00
pIC50 [2, 9]: ≥ 7.00
SMILES: CC[C@]1(c2cccc(-c3cnn(C)c3F)c2)C2=C(CC(C)(C)NC2=O)Nc2n[nH]cc21 [Compound 950562]

pIC50 [1, 3]: 6.00 to 7.00
pIC50 [2, 4]: ≥ 7.00
SMILES: CCC(C)C(=O)N1CC2(C1)CC1(CO2)C2=C(CC(C)(C)CC2=O)Nc2n[nH]cc21 (stereo not shown) [Compound 947270]

pIC50 [1, 3]: ≥ 7.00
pIC50 [1, 13]: 6.00 to 7.00
pIC50 [2, 4]: ≥ 7.00
pIC50 [2, 14]: 6.00 to 7.00
SMILES: CC1(C)CC2=C(C(=O)N1)C1(CCN(S(=O)(=O)C3CCCC3)CC1)c1c[nH]nc1N2 [Compound 943960]

pIC50 [1, 11]: ≥ 7.00
pIC50 [1, 8]: 5.30 to 6.00
pIC50 [2, 12]: ≥ 7.00
pIC50 [2, 10]: 6.00 to 7.00
SMILES: CCC1(c2cccc(-c3c(F)cncc3OC)c2)C2=C(Nc3n[nH]cc31)C(F)C(C)(C)CC2=O (stereo not shown) [Compound 948547, 4-ethyl-8-fluoro-4-(3-(3-fluoro-5-methoxypyridin-4-yl)phenyl)-7,7-dimethyl-2,4,6,7,8,9-hexahydro-SH-pyrazolo[3,4-b]quinolin-5-one]

pIC50 [1, 5]: ≥ 7.00
pIC50 [1, 8]: 5.30 to 6.00
pIC50 [2, 6]: ≥ 7.00
pIC50 [2, 10]: 6.00 to 7.00
SMILES: CC[C@@]1(c2cccc(C(C)C)c2)C2=C(CC(C)(C)CC2=O)Nc2n[nH]cc21 [Compound 810373]

pIC50 [1, 5]: 6.00 to 7.00
pIC50 [2, 6]: 6.00 to 7.00
SMILES: CCC1(c2cccc(-c3ccncc3Cl)c2)C2=C(CC(C)(C)NC2=O)Nc2n[nH]cc21 (stereo not shown) [Compound 948020]

pIC50 [1, 11]: ≥ 7.00
pIC50 [1, 8]: ≥ 7.00
pIC50 [2, 12]: ≥ 7.00
pIC50 [2, 10]: ≥ 7.00
SMILES: CC[C@]1(c2cccc(-c3ccncc3C)c2)C2=C(CC(C)(C)CC2=O)Nc2n[nH]c(C(F)(F)F)c21 [Compound 947324]

pIC50 [1, 11]: ≥ 7.00
pIC50 [1, 13]: 6.00 to 7.00
pIC50 [2, 12]: ≥ 7.00
pIC50 [2, 14]: 6.00 to 7.00
SMILES: CC1(C)CC(=O)C2=C(C1)Nc1n[nH]cc1C21CCN(S(=O)(=O)c2cnn(CC(F)(F)F)c2)CC1 [Compound 948123]

pIC50 [1, 7]: 5.30 to 6.00
pIC50 [2, 9]: 6.00 to 7.00
SMILES: CCC1(c2cccc(-c3c(C)nnn3C)c2)C2=C(CC(C)(C)C2=O)Nc2n[nH]cc21 (stereo not shown) [Compound 950815]

pIC50 [1, 5]: ≥ 7.00
pIC50 [2, 6]: ≥ 7.00
SMILES: CCC1(c2cccc(N3CCCC3)c2)C2=C(CC(C)(C)CC2=O)Nc2n[nH]c(C(F)(F)F)c21 (stereo not shown) [Compound 810506]

pIC50 [1, 7]: ≥ 7.00
pIC50 [2, 9]: ≥ 7.00
SMILES: CCC1(c2cccc(-c3cncn3C)c2)C2=C(CC(C)(C)CC2=O)Nc2n[nH]c(C)c21 (stereo not shown) [Compound 884001]

pIC50 [1, 11]: ≥ 7.00
pIC50 [2, 12]: ≥ 7.00
SMILES: CCC1(c2cccc(-c3ccncc3S(C)(=O)=O)c2)C2=C(CC(C)(C)CC2=O)Nc2n[nH]cc21 (stereo not shown) [Compound 947569]
